The values below come from patent publication US20160227778A1, “SEED DRESSING FOR CONTROLLING PHYTOPATHOGENIC FUNGI” (BAYER INTELLECTUAL PROPERTY GMBH, priority 2004, published 2016).

Common to all, as to assay type: in vivo
Experiment [1] concerns Rhizoctonia solani. The experiment can be described thus: Rhizoctonia solani test (cotton)/seed treatment. Conditions: dry seed dressing, application rate 50 g/100 kg of seed, evaluated after 7-8 days, method of Abbot. Here is the method:
Rhizoctonia solani Test (Cotton)/Seed Treatment The active compounds are applied as dry seed dressing. This is prepared by extending the active compounds in question with ground minerals to give a finely pulverulent mixture which ensures uniform distribution on the seed surface. To dress the seed, the seed together with the seed dressing is shaken for 3 minutes in a closed glass bottle. 2×50 seed corns are sown in standardized soil in seed trays. Perlite infected with Rhizoctonia solani (5 ml/seed tray) is scattered between the seed and covered with Lecaton, and the seeds are then cultivated in a greenhouse at a temperature of about 22° C. and 15 hours of light per day. After 7-8 days, all the emerged and diseased plants are evaluated. The effect is calculated by the method of Abbot. 0% means an efficacy which corresponds to that of the control, whereas an efficacy of 100% means that no infection is observed.

In another experiment the test system is Ustilago nuda. Nature of the experiment: Ustilago nuda test (barley)/seed treatment/outdoor trial. The note with it: summer barley, infected seed, outdoor trial, application rate 10 g/100 kg of seed, evaluated at begin to middle of blossom. Here is the method:
Ustilago nuda Test (Barley)/Seed Treatment/Outdoor Trial Cereal species: Summer barley Amount of seed per plot: 40 g Plot size: 2 m^2 Number of repetitions: 3 Development stage: Begin to middle of blossom The active compounds are applied as a commercial formulation. For dressing, the preparation is initially charged in a dressing beaker and placed on a dressing shaker. The infected seed is added and shaken for about 2-3 min, until homogenization is achieved. After preparing the soil in a customary manner, outdoor sowing is carried out at a time which favours infection by the disease. Evaluation is carried out at a time when all the disease symptoms are clearly present. 0% means an efficacy which corresponds to that of the control, whereas an efficacy of 100% means that no infection is observed.

The subject of a further experiment is Pyrenophora graminea. Nature of the experiment: Pyrenophora graminea test (barley)/seed treatment/outdoor trial. Conditions: summer barley, infected seed, outdoor trial, application rate 10 g/100 kg of seed, evaluated at begin of heading. Here is the method: Pyrenophora graminea Test (Barley)/Seed Treatment/Outdoor Trial
Cereal species: Summer barley Plot size: 2 m^2 Amount of seed per plot: 40 g Number of repetitions: 3 Development stage at the time of evaluation: Begin of heading
The active compounds are applied as a commercial formulation.
For dressing, the preparation is initially charged in a dressing beaker and placed on a dressing shaker. The infected seed is added and shaken for about 2-3 min, until homogenization is achieved.
After preparing the soil in a customary manner, outdoor sowing is carried out at a time which favours infection by the disease.
Evaluation is carried out at a time when all the disease symptoms are clearly present. 0% means an efficacy which corresponds to that of the control, whereas an efficacy of 100% means that no infection is observed.

For experiment [2], the system named is Rhizoctonia solani. The experiment can be described thus: Rhizoctonia solani test (rice)/seed treatment. Conditions: rice (cultivar Koshihikari), seed dressing, application rate 200 g/100 kg of seed, evaluated seven days after inoculation. Here is the method: Rhizoctonia solani Test (Rice)/Seed Treatment Rice seed (cultivar Koshihikari) is soaked at 15° C. in distilled water for 10 days, transferred into fresh water and, whilst being ventilated, soaked at 32° C. for 1 day. The seed is then dried at room temperature for a number of hours. 7.6 mg of the test substance are dissolved in 200 μl of acetone in a test vessel, an aliquot of seed (corresponding to 3.8 g of dry seed) is added, the samples mixed and the acetone is aspirated. The seed is sown on soil in a plastic vessel having a diameter of 7.5 cm and cultivated in an incubator at 32° C. with high atmospheric humidity in the dark for 3 days. The seedlings are then cultivated in a greenhouse at on average 21° C. for 2 weeks. In each case 5 seedlings are transferred into 5 plastic vessels having a diameter of 12 cm and cultivated in a greenhouse at on average 25° C. for 5-6 weeks. Mycelia of Rhizoctonia solani which had been grown on sterile barley corns are placed at the foot of the rice plant (5 cm from the soil surface) and incubated in a glass chamber with high atmospheric humidity at on average 27° C. Seven days after the inoculation, the degree of infection is evaluated and the efficacy is calculated. [table]

In turn, `Cc1nn(C)c(F)c1C(=O)Nc1ccccc1C(C)CC(C)C` (stereo not shown) [drawing 46] gave an Efficacy in % in the experiment with Rhizoctonia solani [1] of 100%.

`CC(C)CC(C)c1sccc1NC(=O)c1cn(C)nc1C(F)(F)F` (stereo not shown) [drawing 52] displayed an Efficacy in % with Ustilago nuda of 99%. In the experiment on Pyrenophora graminea, `Cc1nn(C)c(F)c1C(=O)Nc1ccccc1C(C)CC(C)C` (stereo not shown) [drawing 48] displayed an Efficacy in % of 97%. Turning to `Cc1nn(C)c(F)c1C(=O)Nc1ccccc1C(C)CC(C)C` (stereo not shown) [drawing 51], in the experiment on Ustilago nuda, the Efficacy in % was found to be 100%. Consider `Cc1nn(C)c(F)c1C(=O)Nc1ccccc1C(C)CC(C)C` (stereo not shown) [drawing 50], for which, in the experiment on Rhizoctonia solani [2], the Efficacy in % is 91%.

In the case of `CC(C)CC(C)c1sccc1NC(=O)c1cn(C)nc1C(F)(F)F` (stereo not shown) [drawing 47], in the experiment on Rhizoctonia solani [1], the Efficacy in % is 100%. `CC(C)CC(C)c1sccc1NC(=O)c1cn(C)nc1C(F)(F)F` (stereo not shown) [drawing 49] returned an Efficacy in % with Pyrenophora graminea of 97%.
